Assay results from the supplement of paper PMC9763283.
± gives the standard deviation of the averaged measurements.

Experiments:
Assay in all cases: area under growth-rate inhibition curve (AUC GRI) (dimensionless (GR-based AUC)); higher = less growth inhibition
Conditions in all cases: exposure time: 72 h; concentrations: 0.1, 1, 10 uM
BT474-LTR = test system: BT474-LTR
Summary of the method: (§1)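 Nuclear counts from Hoechst 33342- or DAPI-stained images were used to estimate the area under the growth-rate inhibition curve, with growth corrected by reference to untreated and DMSO-treated plates and starting plates. The six breast cancer cell line models, comprising two triple-negative lines and parental and drug-combination-resistant HER2+ lines, were treated with compound at 0.1, 1 or 10 µM for 72 h. Data came from 2 biological replicates, using Day 0 and Day 3 plates.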

BT474-P = test system: BT474-P
Summary of the method: as §1

MDA-MB-231 = test system: MDA-MB-231
Summary of the method: as §1

MDA-MB-468 = test system: MDA-MB-468
Summary of the method: as §1

SKBR3-LTR = test system: SKBR3-LTR
Summary of the method: as §1

SKBR3-P = test system: SKBR3-P
Summary of the method: as §1

Structure (SMILES) | area under growth-rate inhibition curve (BT474-LTR) | area under growth-rate inhibition curve (BT474-P) | area under growth-rate inhibition curve (MDA-MB-231) | area under growth-rate inhibition curve (MDA-MB-468) | area under growth-rate inhibition curve (SKBR3-LTR) | area under growth-rate inhibition curve (SKBR3-P)
NC(=O)OCC(COC(N)=O)c1ccccc1 [Felbamate] | 1.02 | 1.01 | 1.04 | 1.03 | 1.05 | 1.03
CC(C)C(=O)Oc1ccc(CO)cc1[C@H](CCN(C(C)C)C(C)C)c1ccccc1.O=C(O)/C=C/C(=O)O [Fesoterodine Fumarate] | 1 | 0.994 | 1.01 | 1.01 | 0.961 | 0.973
CC(C)(C(=O)O)c1ccc(C(O)CCCN2CCC(C(O)(c3ccccc3)c3ccccc3)CC2)cc1.[Cl-].[H+] (stereo not given) [Fexofenadine HCl] | 1.01 | 1.03 | 1 | 1.03 | 1.01 | 1.03
CCCCCCCCc1ccc(CCC(N)(CO)CO)cc1.Cl [Fingolimod (FTY720) HCl] | 0.96 | 0.836 | 0.829 | 0.864 | 0.814 | 0.901
CCOC(=O)c1ncn2c1CN(C)C(=O)c1cc(F)ccc1-2 [Flumazenil] | 1.06 | 1.03 | 1.01 | 1.02 | 1.03 | 0.989
CNCCC(Oc1ccc(C(F)(F)F)cc1)c1ccccc1.[Cl-].[H+] (stereo not given) [Fluoxetine HCl] | 1.03 | 1.02 | 1 | 1.03 | 1 | 1.02
C[C@]12CCC(=O)C=C1CC[C@H]1[C@@H]3CC[C@@](C)(O)[C@@]3(C)C[C@H](O)[C@@]12F [Fluoxymesterone] | 0.955 | 0.937 | 0.995 | 1.04 | 1.03 | 1.01
OCCN1CCN(CCCN2c3ccccc3Sc3ccc(C(F)(F)F)cc32)CC1.[Cl-].[Cl-].[H+].[H+] [Fluphenazine (dihydrochloride)] | 1.06 | 0.966 | 0.991 | 0.953 | 1.05 | 0.975
Cl.Cl.OCCN1CCN(CCCN2c3ccccc3Sc3ccc(C(F)(F)F)cc32)CC1 [Fluphenazine dihydrochloride?] | 1.02 | 1.01 | 1.03 | 1.03 | 1.05 | 1.02
CCC(=O)O[C@@]1(C(=O)SCF)[C@H](C)CC2C3CC(F)C4=CC(=O)C=C[C@]4(C)[C@]3(F)C(O)C[C@@]21C (stereo not given in full) [Fluticasone propionate] | 1.04 | 0.985 | 0.973 | 1.04 | 1.05 | 0.915
COCCCC/C(=N\OCCN)c1ccc(C(F)(F)F)cc1.O=C(O)/C=C\C(=O)O [Fluvoxamine maleate] | 1.1 | 1.04 | 1.01 | 1.03 | 1.05 | 1.02
COc1ccc(C[C@H](C)NC[C@@H](O)c2ccc(O)c(NC=O)c2)cc1.COc1ccc(C[C@H](C)NC[C@@H](O)c2ccc(O)c(NC=O)c2)cc1.O=C(O)/C=C/C(=O)O [Formoterol Hemifumarate] | 1.05 | 1.01 | 0.93 | 1.01 | 1.09 | 1.03
C=C[C@@]1(C)CC(=O)[C@]2(O)[C@@]3(C)[C@@H](O)CCC(C)(C)[C@@H]3[C@H](O)[C@H](OC(C)=O)[C@@]2(C)O1 [Forskolin] | 1.02 | 0.984 | 0.924 | 1.01 | 1.04 | 1.03
CCC(=O)O[C@@H](OP(=O)(CCCCc1ccccc1)CC(=O)N1C[C@H](C2CCCCC2)C[C@H]1C(=O)[O-])C(C)C.[Na+] (stereo not given in full) [Fosinopril Sodium] | 1.13 | 1.06 | 1.03 | 1.02 | 1.04 | 1.01
C[C@]12CC[C@@H]3c4ccc(O)cc4C[C@@H](CCCCCCCCCS(=O)CCCC(F)(F)C(F)(F)F)[C@H]3[C@@H]1CC[C@@H]2O (stereo not given in full) [Fulvestrant] | 0.986 | 0.778 | 1.02 | 0.96 | 1.01 | 0.952
NCC1(CC(=O)O)CCCCC1 [Gabapentin] | 1.04 | 1 | 1.04 | 1.04 | 1.08 | 1.03
CC[N+](CC)(CC)CCOc1cccc(OCC[N+](CC)(CC)CC)c1OCC[N+](CC)(CC)CC.[I-].[I-].[I-] [Gallamine Triethiodide] | 1.08 | 1.02 | 1.03 | 1.01 | 1.03 | 1
C#C[C@]1(O)C=C[C@H]2[C@@H]3CCC4=CC(=O)CC[C@@H]4[C@H]3CC[C@@]21CC [Gestodene] | 1.04 | 0.981 | 1.03 | 1.03 | 1.12 | 1.01
NCC(=O)O [Glycine] | 1.05 | 1.03 | 1.04 | 1.03 | 1.06 | 1.03
N=C(N)N/N=C/c1c(Cl)cccc1Cl [Guanabenz Acetate] | 1.1 | 1.03 | 1.03 | 1 | 1.08 | 1.01
NC(N)=NCCCC(N)C(=O)NC(CCCN=C(N)N)C(=O)N1CCCC1C(=O)N1CC(O)CC1C(=O)NCC(=O)NC(Cc1cccs1)C(=O)NC(CO)C(=O)N1Cc2ccccc2CC1C(=O)N1C(C(=O)NC(CCCN=C(N)N)C(=O)O)CC2CCCCC21 (stereo not given) [HOE 140] | 1.06 | 1.03 | 1.01 | 1.02 | 1.04 | 1.04
O=C(CCCN1CCC(O)(c2ccc(Cl)cc2)CC1)c1ccc(F)cc1.[Cl-].[H+] [Haloperidol hydrochloride] | 1.07 | 1.03 | 1.04 | 1.04 | 1.05 | 1.01
COc1ccc([C@@H]2CC(=O)c3c(O)cc(O)cc3O2)cc1O [Hesperetin] | 1.02 | 1.01 | 1 | 0.996 | 1.02 | 1.03
CC[C@H](c1ccc(O)cc1)[C@@H](CC)c1ccc(O)cc1 [Hexestrol] | 1.06 | 1.05 | 1.02 | 0.973 | 0.993 | 0.989
Cl.Cl.NCCc1cnc[nH]1 [Histamine 2HCl] | 1.11 | 1.05 | 1.02 | 1.02 | 1.05 | 1.01

Structure (SMILES) | area under growth-rate inhibition curve (BT474-LTR) | area under growth-rate inhibition curve (BT474-P) | area under growth-rate inhibition curve (MDA-MB-231) | area under growth-rate inhibition curve (MDA-MB-468) | area under growth-rate inhibition curve (SKBR3-LTR) | area under growth-rate inhibition curve (SKBR3-P)
OCCOCCN1CCN(C(c2ccccc2)c2ccc(Cl)cc2)CC1.[Cl-].[Cl-].[H+].[H+] (stereo not given) [Hydroxyzine 2HCl] | 1.1 | 1.08 | 1.01 | 1.04 | 1.05 | 0.995
CN1C2CCC1CC(OC(=O)C(CO)c1ccccc1)C2 (stereo not given) [Hyoscyamine] | 1.13 | 1.06 | 1.03 | 1.04 | 1.04 | 1.04
NCCCCCNCC12CC3CC(CC(C3)C1)C2.[Br-].[Br-].[H+].[H+] [IEM 1754 dihydrobroMide] | 1.07 | 1.01 | 1.04 | 1.03 | 1.04 | 1.03
CC(C(O)c1ccc(O)cc1)N1CCC(Cc2ccccc2)CC1.CC(C(O)c1ccc(O)cc1)N1CCC(Cc2ccccc2)CC1.O=C(O)C(O)C(O)C(=O)O (stereo not given) [Ifenprodil Tartrate] | 1.01 | 1.02 | 1.04 | 0.985 | 0.997 | 0.985
COc1cc(C(C)=O)ccc1OCCCN1CCC(c2noc3cc(F)ccc23)CC1 [Iloperidone] | 1.02 | 0.979 | 1.04 | 1.03 | 1.07 | 0.991
CCc1cc2c(cc1CC)CC(NC[C@H](O)c1ccc(O)c3[nH]c(=O)ccc13)C2.O=C(O)/C=C\C(=O)O [Indacaterol Maleate] | 1 | 0.978 | 0.903 | 0.93 | 1.01 | 0.955
CCCCC1=NC2(CCCC2)C(=O)N1Cc1ccc(-c2ccccc2-c2nn[nH]n2)cc1 [Irbesartan] | 1.063 ± 0.0091 | 1.032 ± 0.0013 | 1.042 ± 0.002 | 1.04 ± 0.023 | 1.04 ± 0.036 | 1.03 ± 0.019
CC(C)NCC(O)c1ccc(O)c(O)c1.[Cl-].[H+] (stereo not given) [Isoprenaline HCl] | 1.08 | 1.04 | 1.05 | 1.04 | 1.03 | 0.995
COc1cc2c(cc1OC)CC(=O)N(CCCN(C)CC1Cc3cc(OC)c(OC)cc31)CC2.Cl (stereo not given) [Ivabradine HCl] | 1.04 | 1.02 | 1.01 | 1.01 | 1.07 | 1.03
CCc1ccc(OCc2ccccc2C(=O)Nc2ccc3nc(C)cc(N)c3c2)cc1.[Cl-].[H+] [JTC-801] | 0.744 | 0.751 | 0.713 | 0.718 | 0.8 | 0.778
CN1CCC(=C2c3ccccc3CC(=O)c3sccc32)CC1.O=C(O)/C=C/C(=O)O [Ketotifen Fumarate] | 1.07 | 1.02 | 0.939 | 1 | 1.1 | 1.01
N[C@@H](Cc1ccc(O)c(O)c1)C(=O)O [L-DOPA] | 1.04 | 0.987 | 1.05 | 1.05 | 1.05 | 1.03
Cc1c(C(=O)Nc2ccc(N3CC(C)OC(C)C3)nc2)cccc1-c1ccc(OC(F)(F)F)cc1 (stereo not given) [LDE225 (NVP-LDE225,Erismodegib)] | 1.04 | 0.909 | 0.921 | 0.915 | 1.03 | 0.981
CC(CCc1ccccc1)NCC(O)c1ccc(O)c(C(N)=O)c1.Cl (stereo not given) [Labetalol HCl] | 1.07 | 1.1 | 1.06 | 1.04 | 1.06 | 1.01
O=C(CS(=O)Cc1ccco1)NC/C=C\COc1cc(CN2CCCCC2)ccn1 (stereo not given) [Lafutidine] | 1.1 | 1.02 | 1.03 | 1.02 | 1.06 | 0.987
OC[C@H](O)CN1CCN(c2ccccc2)CC1 [Levodropropizine] | 0.995 | 1.01 | 0.999 | 1.03 | 0.975 | 1.02
CCN1CCCC1CNC(=O)c1cc(S(N)(=O)=O)ccc1OC (stereo not given) [Levosulpiride] | 1.06 | 1.02 | 1.01 | 1.03 | 1.05 | 1.01
CCN(CC)CC(=O)Nc1c(C)cccc1C [Lidocaine] | 1.11 | 1.04 | 1.03 | 1.05 | 1.08 | 1.03
NCCCC[C@H](N[C@@H](CCc1ccccc1)C(=O)O)C(=O)N1CCC[C@H]1C(=O)O.O.O [Lisinopril] | 1.1 | 1.06 | 1.01 | 1 | 1.08 | 1.02
CN(C)C(=O)C(CCN1CCC(O)(c2ccc(Cl)cc2)CC1)(c1ccccc1)c1ccccc1.[Cl-].[H+] [Loperamide HCl] | 0.94 | 0.882 | 1.03 | 0.911 | 1 | 0.943
C[C@H]1CNCCc2ccc(Cl)cc21.[Cl-].[H+] [Lorcaserin HCl] | 1.09 | 1.06 | 1.02 | 1.03 | 1.03 | 1.03
CN1CCN(C2=Nc3ccccc3Oc3ccc(Cl)cc32)CC1 [Loxapine] | 1.03 | 0.995 | 1.04 | 1.03 | 1.06 | 1.02
N#Cc1cc2cc(CN3CCC(Nc4ncnc5sc(CC(F)(F)F)cc45)CC3)ccc2[nH]1 [MI-136] | 0.906 | 0.833 | 0.931 | 0.834 | 1.01 | 0.895
C[C@]12N[C@H](Cc3ccccc31)c1ccccc12 [MK-801 (Dizocilpine)] | 1.09 | 1.03 | 1.03 | 1.05 | 1.06 | 0.998
Cc1cccc(C#Cc2ccccc2)n1 [MPEP] | 1.1 | 1.03 | 1.05 | 1.03 | 1.05 | 0.999
